The target in the data set is SNHG14. The note with it: ASO.
The mark [1] stands for this setting: Mouse Primary Neuronal Cell, 0.005 µM.

After the bases stand the sugars from the 5' end (letter, count) and the backbone: PS all phosphorothioate, else s phosphorothioate and o phosphodiester by linkage. Methylation of C is not given here. l = locked nucleic acid (LNA); d = 2'-deoxy (DNA)

Turning to CTCTGCAATACACCAA (sugars l2 d10 l4, PS), the target mRNA inhibition is 54% (Human Neuronal Cell, 0.2 µM) and 55% (Human Neuronal Cell, 1 µM). On to “ACTGTTTATACCCTTTC (sugars ldddlddddddddldll, PS)”, for which, under “Human Neuronal Cell, 7.5 µM”, the target mRNA inhibition turned out to be 55%. The same measure, in the same setting: the result for “AAATTATTTATACACCATCA (sugars ldddlldddddddldldlll, PS)” reads 67%. In the case of “CTCCTTTATGACTCCAA (sugars l4 d11 l2, PS)”, the target mRNA inhibition by setting is: (Human Neuronal Cell, 0.2 µM) 41%; (Human Neuronal Cell, 1 µM) 59%. Take “ATCATTCTCAACAATTA (sugars l4 d7 l1 d1 l4, PS)”: for the setting “Human Neuronal Cell, 7.5 µM”, the target mRNA inhibition is 53%. Still for that read-out and setting: the result for “CTTTCCATTTATTTCCATT (sugars l1 d3 l1 d11 l3, PS)” reads 58%; that for “TTCTGTATACACCATCC (sugars l1 d1 l1 d12 l2, PS)”, 62%. The same measure, in the same setting: next, “CTGTATACACCATCCCA (sugars ldddlddddddddldll, PS)”: 68%.

In the case of “ATCTTTCCATTTATTTCC (sugars l3 d12 l3, PS)”, the target mRNA inhibition is, setting by setting: (Human Neuronal Cell, 0.2 µM) 52%; (Human Neuronal Cell, 1 µM) 56%. Regarding “CTCAAAGATCATTCTCA (sugars l1 d2 l1 d7 l6, PS)”, the target mRNA inhibition (Human Neuronal Cell, 7.5 µM) was found to be 16%. Same read-out and setting: the result for “TATCTTTCCATTTATTTCC (sugars l1 d2 l1 d13 l2, PS)” reads 41%. Regarding “ATTTAAATTTCCAAACATT (sugars l2 d13 l4, PS)”, the target mRNA inhibition runs as follows: (Human Neuronal Cell, 0.2 µM) 11%; (Human Neuronal Cell, 1 µM) -17%.

Turning to TCCTATGTTAATACTT (sugars l3 d10 l3, PS), the target mRNA inhibition reads like this: (Human Neuronal Cell, 0.2 µM) 14%; (Human Neuronal Cell, 1 µM) 34%.

Regarding “GTTTATACCCTTTCCAAT (sugars ldlldddddddddldlll, PS)”, the target mRNA inhibition (Human Neuronal Cell, 7.5 µM) is 63%. As for ACTCTCACTGTAACTT (sugars l3 d10 l3, PS), the target mRNA inhibition was 36% (Human Neuronal Cell, 0.2 µM) and 44% (Human Neuronal Cell, 1 µM). The corresponding values for ATACACAGCACATATT (sugars l2 d10 l4, PS) are 29% and 43%. Consider “AGCAACATTATTAACCACC (sugars l2 d1 l2 d12 l2, PS)”, for which the target mRNA inhibition (Human Neuronal Cell, 7.5 µM) worked out at 63%. Same read-out and setting: next, “TTATAGCCATTCTATCT (sugars ldldddddddddlldll, PS)”: 45%. In the case of GCTCACACTAATTATT (sugars l2 d10 l4, PS), the target mRNA inhibition was found to be 25% (Human Neuronal Cell, 0.2 µM) and 43% (Human Neuronal Cell, 1 µM). For TTAGTATACCCTTTAT (sugars l3 d10 l3, PS), the target mRNA inhibition turned out to be 28% (Human Neuronal Cell, 0.2 µM) and 20% (Human Neuronal Cell, 1 µM).

For the sequence “TTCTACTATACTTTCCTCT (sugars l1 d14 l1 d1 l2, PS)”, for the setting “Human Neuronal Cell, 7.5 µM”, the target mRNA inhibition was 50%. The same measure, in the same setting: the result for “TCTGTATACACCATCCC (sugars l2 d13 l2, PS)” reads 62%; that for “TTATTTCCATTTATTTTCA (sugars ldlldddddddddlddlll, PS)”, 68%; that for “GTTTATACCCTTTCCAAT (sugars l1 d2 l1 d12 l2, PS)”, 61%. Same read-out and setting: next, “TTCCATTTATTTCCATTTAT (sugars ldlddlddddddddldldll, PS)”: 63%; “CTGTATACACCATCCCA (sugars ldldlddddddddddll, PS)”: 61%. As to ATCTGAATCAAACCTT (sugars l2 d10 l4, PS), the target mRNA inhibition turned out to be 45% (Human Neuronal Cell, 0.2 µM) and 45% (Human Neuronal Cell, 1 µM). On to “TTTACACTTAATTATACTTC (sugars lldddldddddddlllldll, PS)”, for which the target mRNA inhibition (Human Neuronal Cell, 7.5 µM) was 51%. On to “ATTTTTTTCTTACTATCTTC (sugars ldlllddddddddlddddll, PS)”, for which, under “Human Neuronal Cell, 7.5 µM”, the target mRNA inhibition turned out to be 56%. The same measure, in the same setting: next, “ATCTCATGACCACCTAA (sugars ldlllddddddddldll, PS)”: 66%.

As for “CCTACATCTCATACTTG (sugars l3 d11 l3, PS)”, the target mRNA inhibition under setting [1] worked out at 96%. Take “TTTATCAATATCTTCTCACT (sugars lddldldddddddddddlll, PS)”: where the note is “Human Neuronal Cell, 7.5 µM”, the target mRNA inhibition was found to be 57%. As to “GTTCTACTATACTTTCCT (sugars l1 d2 l1 d12 l2, PS)”, for the setting “Human Neuronal Cell, 7.5 µM”, the target mRNA inhibition was found to be 53%. Same read-out and setting: the result for “TTCTGTATACACCATCC (sugars l1 d12 l1 d1 l2, PS)” reads 62%. Take “ACCAATTATACTTACAA (sugars l3 d11 l3, PS)”: the target mRNA inhibition reads like this: (Human Neuronal Cell, 0.2 µM) 21%; (Human Neuronal Cell, 1 µM) 52%. Turning to “ATCATTCTCAACAATTAAA (sugars l4 d1 l1 d8 l5, PS)”, the target mRNA inhibition (Human Neuronal Cell, 7.5 µM) amounted to 49%.

Turning to CCATGCTACATAAACC (sugars l4 d10 l2, PS), the target mRNA inhibition by setting is: (Human Neuronal Cell, 0.2 µM) 36%; (Human Neuronal Cell, 1 µM) 50%. “CTCAAAGATCATTCTCA (sugars l3 d10 l1 d1 l2, PS)”: for the setting “Human Neuronal Cell, 7.5 µM”, the target mRNA inhibition was determined as 61%. In the case of “CGAATCTTGACATACAGG (sugars l3 d12 l3, PS)”, the target mRNA inhibition is, setting by setting: (Human Neuronal Cell, 0.2 µM) 8%; (Human Neuronal Cell, 1 µM) 19%; (Human Neuronal Cell, 5 µM) 14%. As to “TCTTTCCATTTATTTCCATT (sugars l2 d4 l1 d10 l3, PS)”, the target mRNA inhibition (Human Neuronal Cell, 7.5 µM) stood at 57%. Consider “TATTGATTCAATTCCCT (sugars l3 d9 l2 d1 l2, PS)”, for which the target mRNA inhibition (Human Neuronal Cell, 7.5 µM) is 65%. As to “ACATCTCATACTTGCTT (sugars l2 d11 l4, PS)”, the target mRNA inhibition is, setting by setting: (Human Neuronal Cell, 0.2 µM) -4%; (Human Neuronal Cell, 1 µM) 7%; (Human Neuronal Cell, 5 µM) 9%; under setting [1], 96%. For “AAAATCTCAACTACCATTTT (sugars lllldldddddddlddllll, PS)”, the target mRNA inhibition (Human Neuronal Cell, 7.5 µM) worked out at 14%.

In the case of “TATTGATTCAATTCCCT (sugars l1 d12 l4, PS)”, where the note is “Human Neuronal Cell, 7.5 µM”, the target mRNA inhibition was 57%. As for “AAAATCTCAACTACCATTT (sugars ldlldlddddddddlldll, PS)”, under “Human Neuronal Cell, 7.5 µM”, the target mRNA inhibition was determined as 30%. As for TTCTTGTTTATCCCAA (sugars l2 d10 l4, PS), the target mRNA inhibition is 67% (Human Neuronal Cell, 0.2 µM) and 71% (Human Neuronal Cell, 1 µM). As for “ACATGTCCCTTTATATT (sugars l4 d11 l2, PS)”, the target mRNA inhibition was -15% (Human Neuronal Cell, 0.2 µM); -4% (Human Neuronal Cell, 1 µM); 9% (Human Neuronal Cell, 5 µM); 83.7% under setting [1]. Turning to “AATTATTTATACACCATCAT (sugars lllddllddddddldlldll, PS)”, the target mRNA inhibition (Human Neuronal Cell, 7.5 µM) worked out at 56%.

On to CATTCTATCTGCCAAA (sugars l2 d10 l4, PS), for which the target mRNA inhibition (Human Neuronal Cell, 0.2 µM) is 55% and the target mRNA inhibition (Human Neuronal Cell, 1 µM) was 64%. For “AAATTATTTATACACCATCA (sugars ldllllddddddddldldll, PS)”, the target mRNA inhibition (Human Neuronal Cell, 7.5 µM) turned out to be 70%. For the sequence CATCTGCTACATATTC (sugars l4 d10 l2, PS), the target mRNA inhibition by setting is: (Human Neuronal Cell, 0.2 µM) 49%; (Human Neuronal Cell, 1 µM) 58%. The corresponding values for AGCACATATACCATCA (sugars l4 d10 l2, PS) are 51% and 56%. Regarding “TTTATCAATATCTTCTCAC (sugars lldlllddddddlddddll, PS)”, the target mRNA inhibition (Human Neuronal Cell, 7.5 µM) stood at 65%. The same measure, in the same setting: the result for “TTATAGCCATTCTATCT (sugars ldddlddddddldllll, PS)” reads 26%; that for “TTTTTATACCTTTCTTTAAC (sugars llldlddddddddldldlll, PS)”, 62%.

Values taken from the OligoGym collection.
